Experimental data as given in paper PMC5120310, “In Silico Exploration for Novel Type-I Inhibitors of Tie-2/TEK: The Performance of Different Selection Strategy in Selecting Virtual Screening Candidates” (Scientific Reports, 2016).
Where two headings read alike, the source gives them in different places.

How the values were obtained:
[1] = molecular target: T1, recombinant human Tie-2 protein (Homo sapiens, UniProt Q02763); test: Z′-Lyte FRET enzymatic activity assay of Tie-2 kinase; type: biochemical; details: for Inhibition (%) @10 μg/ml / inhibition at 10 µg/mL: 10 μg/mL preliminary screening, Table S1; for inhibition at 5 µg/mL: read-out: Kinase Inhibition (%) at 5 μg/mL (± SD)
T1 construct: purchased Thermo Fisher Scientific Inc. PV3628
T1 sequence (Q02763 23-1124): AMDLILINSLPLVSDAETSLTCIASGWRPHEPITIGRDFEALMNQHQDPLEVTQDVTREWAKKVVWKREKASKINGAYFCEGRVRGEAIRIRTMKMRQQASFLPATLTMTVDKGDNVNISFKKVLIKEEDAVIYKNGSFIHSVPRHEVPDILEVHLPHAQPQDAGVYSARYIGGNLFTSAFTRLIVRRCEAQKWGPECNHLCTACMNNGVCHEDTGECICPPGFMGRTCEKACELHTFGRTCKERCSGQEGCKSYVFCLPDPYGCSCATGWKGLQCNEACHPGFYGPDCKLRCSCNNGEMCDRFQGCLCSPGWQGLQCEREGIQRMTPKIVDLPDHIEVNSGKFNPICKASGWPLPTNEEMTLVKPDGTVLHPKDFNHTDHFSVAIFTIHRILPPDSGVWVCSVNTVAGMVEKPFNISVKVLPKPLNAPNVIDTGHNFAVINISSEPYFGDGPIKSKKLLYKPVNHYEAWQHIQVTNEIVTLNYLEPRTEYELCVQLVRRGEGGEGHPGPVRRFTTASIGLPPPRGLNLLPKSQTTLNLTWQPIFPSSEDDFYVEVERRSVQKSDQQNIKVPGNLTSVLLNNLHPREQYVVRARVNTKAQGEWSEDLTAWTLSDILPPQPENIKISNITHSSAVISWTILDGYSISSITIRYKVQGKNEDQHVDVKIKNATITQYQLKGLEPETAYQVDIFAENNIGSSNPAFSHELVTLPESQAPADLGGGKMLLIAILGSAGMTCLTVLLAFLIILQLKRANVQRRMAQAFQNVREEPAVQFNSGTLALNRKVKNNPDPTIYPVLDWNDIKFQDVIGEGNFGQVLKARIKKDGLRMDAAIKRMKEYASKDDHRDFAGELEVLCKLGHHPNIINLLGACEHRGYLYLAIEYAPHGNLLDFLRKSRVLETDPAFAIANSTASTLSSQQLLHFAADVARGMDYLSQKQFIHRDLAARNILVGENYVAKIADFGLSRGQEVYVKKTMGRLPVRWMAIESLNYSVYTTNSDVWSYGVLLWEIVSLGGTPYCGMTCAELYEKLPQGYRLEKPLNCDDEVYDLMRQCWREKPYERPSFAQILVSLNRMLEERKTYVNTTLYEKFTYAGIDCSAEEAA
Experimental: In order to assess the biological inhibitory activity of the VS compounds, Z’-Lyte enzymatic activity assay based on FRET (Fluorescence Resonance Energy Transfer) technology was developed as described above. […] At first, all the compounds obtained from both filtering strategies were preliminary screened for their ability to inhibit Tie-2 kinase activity at the concentration of 10 μg/mL.
The Tie-2 kinase inhibitor (CAS#: 948557-43-5, purity ≥ 97%) was purchased from Merck Calbiochem (Darmstadt, Germany) and used as a positive control inhibitor in bioassays[40]. […] All the purchased screening compounds were firstly dissolved in dimethyl sulfoxide (DMSO) at a stock concentration of 5 mg/ml. The final working concentration of DMSO is less than 1%.
Compounds were tested for their ability to inhibit Tie-2 kinase activity using Z′-Lyte® kinase assay kit (ser/thr 5 peptide) with NUNC 384-well plate. In the first step, the test compounds and ATP solution were firstly prepared at 4 × desired concentration. The mixture of recombinant human Tie-2 protein and non-phosphorylated peptide at 2 × desired concentration was prepared in kinase reaction buffer A consisting of 50 mM HEPES (pH 7.5), 0.01% BRIJ-35, 10 mM MgCl2, 4 mM MnCl2, 1 mM EGTA and 2 mM DTT. Reactions were then carried out in a solution containing 2.5 μL test compounds, 5 μL Tie-2/Tyr 05 peptide mixture (10 ng Tie-2 and 2 μM Tyr 05 peptide) and 2.5 μL ATP (100 μM). Then, the assay plate was shaken for 30 seconds on a plate shaker, and incubated for 1 hour at room temperature (20~25 °C). After sufficient kinase reactions, 5 μL development reagent A was added to each well, and the plate was incubated for another hour. Finally, 5 μL stop reagent was added to terminate the reactions, and the coumarin and fluorescein emission signals (excitation: 400 nm; emission: 445 and 520 nm, respectively) were measured on a fluorescence plate reader (BioTek Synergy 4).

[2] = tested on: Tie-2; set-up: method as in PMID 17618114; details: tool inhibitor; read-out: IC50 against Tie-2, previously reported; cited from earlier work
[3] = Z′-Lyte assay, 100 μM ATP, n ≥ 2 per concentration, read-out: IC50 (half-maximal inhibitory concentration), Tie-2 kinase
[4] = in the dose-response figure, read-out: IC50 (dose-dependent inhibitory effect), Tie-2 kinase (converted)

Row | Compound | Inhibition (%) @10 μg/ml [1] [%] | further results
1 | COc1ccc2cc(-c3nc(-c4ccc([S+](C)[O-])cc4)[nH]c3-c3ccncc3)ccc2c1 (stereo not shown) [Tie-2 inhibitor, reference compound] | 95.2±1.58 | Kinase Inhibition (%) at 5 μg/mL (± SD) ([1]; 5 μg/mL, n ≥ 2): 93.01 ± 1.02%; IC50 [2]: 0.25 µM
2 | COc1cc(C=NN=C2SC(CC(=O)O)C(=O)N2c2ccc(O)cc2)ccc1O (stereo not shown) [TP-C1-11] | 37.56±1.85 | –
3 | CCCOc1ccc(C(=O)NC(=S)Nc2ccc(NC(=O)c3ccc(C(C)(C)C)cc3)cc2)cc1 [TP-C3-52] | – | inhibition at 5 µg/mL ([1]; 5 μg/mL, n ≥ 2): 7.88 ± 0.59%; IC50 [1, 3]: 36.7 µM
4 | CCOC(=O)c1ccc(NC(=O)CN2C(=O)c3ccccc3C2=O)cc1 [TP-C1-3] | 37.64±1.82 | –
5 | CCCOc1ccc(N2C(=O)CC(N(CCc3ccc(OC)cc3)C(=O)c3cccc(F)c3)C2=O)cc1 (stereo not shown) [TP-C2-5] | 83.65±2.57 | IC50 [1, 3]: 13.8 ± 1.02 µM
6 | Cc1ccc2nc(-c3ccccn3)cc(C(=O)NC3CCCc4ccccc43)c2c1 (stereo not shown) [TP-C2-37] | 80.89±0.31 | IC50 [1, 3]: 10.8 ± 0.83 µM
7 | CC(=O)Nc1c(O)nc(SCC(=O)Nc2ccc(C(C)=O)cc2)[nH]c1=O [TP-C1-47] | – | inhibition at 10 µg/mL [1]: 81.9 ± 1.73%; IC50 [1, 3]: 5.15 ± 0.4 µM; IC50 [1, 4]: 5.15 µM
8 | O=C(c1cc(-c2ccncc2)nc2ccc(Cl)cc12)N1CCN(C(=O)C2CCCO2)CC1 (stereo not shown) [TP-C2-36] | 61.48±4.57 | –
9 | O=C(CN(c1ccc2c(c1)OCCO2)S(=O)(=O)c1ccccc1)Nc1cccnc1 [TP-C1-38] | 12.5±2.86 | –
10 | O=C(NC(=S)Nc1ccc(-c2nc3ccccc3o2)c(O)c1)c1cccc(Br)c1 [TP-C2-10] | 46.26±3.21 | –
11 | O=C(c1cc(-c2ccncc2)nc2ccc(Br)cc12)N1CCN(Cc2ccc3c(c2)OCO3)CC1 [TP-C1-45] | 63.88±1.45 | –
12 | Cc1ccc2nc(-c3ccc(NC(=S)NC(=O)COc4ccccc4C)cc3)sc2c1 [TP-C2-24] | 83.25±0.08 | IC50 [1, 3]: 17.5 ± 1.16 µM
13 | COc1cccc(C2C(C(=O)c3ccc(C)o3)=C(O)C(=O)N2CCN(C)C)c1 (stereo not shown) [TP-C1-25] | 3.13±1.45 | –
14 | O=C(Nc1ccccn1)c1cc(-c2ccncc2)nc2ccccc12 [TP-C2-54] | 60.19±2.33 | –
15 | Cc1cc(C(=O)c2ccccc2)ccc1OC(=O)CN1C(=O)c2ccccc2C1=O [TP-C1-42] | -27.08±4.67 | –
16 | CC(C)(C)c1ccc(C(=O)Nc2ccc(NC(=S)NC(=O)c3ccccc3)cc2)cc1 [TP-C3-2] | – | inhibition at 5 µg/mL ([1]; 5 μg/mL, n ≥ 2): 33.4 ± 1.74%; IC50 [1, 3]: 27.1 µM; fold decrease in activity compared with compound TP-C3-3 ([1]; from IC50 values): ~ 10 fold
17 | Cc1ccc2c(c1)C(Cc1nc3ccccc3c(=O)n1CCc1ccccc1)C(=O)N2 (stereo not shown) [TP-C2-56] | 74.86±1.02 | –
18 | CC1(C)CC(=O)C(C(=S)Nc2ccccc2)=C(NCc2ccc3c(c2)OCO3)C1 [TP-C2-13] | 84.95±3.24 | IC50 [1, 3]: 6.78 ± 0.36 µM
19 | O=C(NC(=S)Nc1cccc2c(O)cccc12)c1ccc(-c2ccccc2)cc1 [TP-C2-50] | – | inhibition at 10 µg/mL [1]: 97.8 ± 1.13%; IC50 [1, 3]: 1.73 ± 0.17 µM; IC50 [1, 4]: 1.73 µM

Row | Compound | Inhibition (%) @10 μg/ml [1] [%] | further results
20 | Cc1cc(NC(=S)NC(=O)c2ccc3c(c2)OCO3)ccc1NC(=O)c1ccccc1 [TP-C2-30] | 81.26±3.96 | IC50 [1, 3]: 2.05 ± 0.11 µM
21 | COc1ccc(CNC(=O)CSc2nc3ccc(NC(=O)c4ccccc4C)cc3s2)cc1 [TP-C1-32] | 47.23±0.53 | –
22 | CCN1C(=O)NC(c2ccc(Cl)cc2)C(C(=O)OCCc2ccccc2)=C1C (racemic) [TP-C2-3] | 56.11±13.15 | –
23 | O=C(NCCNC(=O)c1cc2ccccc2cc1O)c1cc2ccccc2cc1O [TP-C1-7] | 9.84±11.04 | –
24 | COc1cc(-c2nc3ccccn3c2N=Cc2c[nH]nc2-c2ccccc2)ccc1O [TP-C1-5] | 25.58±3.23 | –
25 | COCCCN1C(=O)C(O)=C(C(=O)c2ccc(Cl)cc2)C1c1ccc(O)cc1 (stereo not shown) [TP-C1-26] | 7.19±0.3 | –
26 | O=C(CC1c2ccccc2Oc2ccccc21)Nc1ccccn1 [TP-C1-30] | 11.44±0.49 | –
27 | COc1ccccc1C(=O)Nc1ccc(Oc2ccc3c(c2)C(=O)NC3=O)cc1 [TP-C1-51] | 54.56±1.99 | –
28 | Cc1ccccc1OCC(=O)OCC(=O)c1ccc(OCc2ccccc2)cc1 [TP-C2-20] | 36.45±0.94 | –
29 | CCOc1cc(CNCCc2ccc(S(N)(=O)=O)cc2)ccc1OCc1ccccc1.Cl [TP-C2-42] | 23.47±2.17 | –
30 | c1ccc(-c2nnc3n2N=C(c2c[nH]c4ccccc24)CS3)cc1 [TP-C1-50] | 61.04±3.33 | –
31 | c1cncc(CN2CN(CC3CCCO3)c3nc4ccccc4n3C2)c1 (racemic) [TP-C1-56] | 29.83±0.28 | –
32 | CC(=O)c1cccc(NC(=O)CSc2nnc(-c3ccccc3)c(=O)[nH]2)c1 [TP-C2-58] | 50.65±0.04 | –
33 | COc1ccc(-c2cc(-c3ccccc3)c(C#N)c(S(=O)(=O)Cc3ccccc3)n2)cc1 [TP-C1-35] | 69.07±3.54 | –
34 | CC(=O)Nc1cccc(NC(=O)c2cc(-c3ccncc3)nc3ccc(Br)cc23)c1 [TP-C2-39] | 75.1±0.83 | –
35 | COc1cc(C(=O)n2c(SCc3ccc(F)cc3)nc3ccccc32)cc(OC)c1OC [TP-C1-22] | -46.75±1.97 | –
36 | COc1ccc(OC)c(Nc2nc(-c3cccc(NC(=O)c4ccccc4)c3)cs2)c1 [TP-C2-14] | 71.64±2.92 | –
37 | O=C(OCc1ccccc1)c1cn(-c2ccccc2)nc1-c1ccncc1 [TP-C1-37] | 25.51±1.18 | IC50 [1, 3]: 36.1 ± 1.33 µM
38 | Fc1ccc(C2CC(c3cccs3)=NN2C(=S)NCCc2ccccc2)cc1 (racemic) [TP-C1-39] | 56.09±2.14 | –

Row | Compound | Inhibition (%) @10 μg/ml [1] [%] | further results
39 | Cc1c(C)n(Cc2ccccc2)c2ccc(C(=O)NNC(=S)NCC3CCCO3)cc12 (stereo not shown) [TP-C1-41] | 32.86±3.03 | –
40 | O=C(NCc1ccco1)c1cc(-c2ccccn2)nc2ccc(Cl)cc12 [TP-C2-35] | 87.59±3.7 | IC50 [1, 3]: 4.59 ± 0.29 µM
41 | O=C(NCCOc1ccccc1)c1n[nH]c(=O)c2ccccc12 [TP-C2-44] | 52.94±2.54 | –
42 | O=C(NCCc1cccc2ccccc12)C1CCCN1S(=O)(=O)c1ccc2ccccc2c1 (stereo not shown) [TP-C1-29] | 39.83±5.94 | –
43 | O=C(Nc1ccccc1C(=O)NCc1cccnc1)c1cccc(F)c1 [TP-C2-55] | 81.27±3.01 | IC50 [1, 3]: 8.21 ± 0.46 µM
44 | Cc1nc(-c2cccnc2)sc1C(=O)NCc1ccccn1 [TP-C2-60] | 66.88±8.04 | –
45 | CN(CCc1ccccn1)S(=O)(=O)c1ccc2c3c(cccc13)C(=O)N2 [TP-C2-25] | -113.04±17.27 | –
46 | Cc1cccc(-n2c(CCN3C(=O)c4ccccc4C3=O)nc3ccccc3c2=O)c1 [TP-C1-10] | 44.25±1.05 | –
47 | O=C(Nc1ccc(NC(=S)NC(=O)c2cccc3ccccc23)cc1)c1cccs1 [TP-C2-15] | 72.64±14.95 | –
48 | O=c1[nH]nc(CCc2n[nH]c(=O)c3ccccc23)c2ccccc12 [TP-C2-1] | 48.48±7.49 | –
49 | Cc1cccc(C(=O)Nc2ccc(NC(=S)NC(=O)c3ccccc3)cc2)c1 [TP-C3-3] | – | inhibition at 5 µg/mL ([1]; 5 μg/mL, n ≥ 2): 67.3 ± 0.78%; IC50 [1, 3]: 2.82 µM
50 | NS(=O)(=O)c1ccc(CCNC(=O)c2cc(-c3ccncc3)nc3ccc(Cl)cc23)cc1 [TP-C2-38] | 89.98±1.62 | IC50 [1, 3]: 7.88 ± 0.35 µM
51 | O=C(COc1ccc(S(=O)(=O)N2CCc3ccccc32)cc1)NCc1cccnc1 [TP-C2-52] | 64.42±0.23 | –
52 | O=C(Nc1ccc2c(c1)OCCO2)C1CC(=O)N(CCc2c[nH]c3ccc(F)cc23)C1 (stereo not shown) [TP-C2-57] | 48.64±1.91 | –
53 | Cc1ccccc1COc1ccc(-c2nnn(CC(=O)Nc3ccc4c(c3)OCO4)n2)cc1 [TP-C2-28] | 40.32±14.48 | –
54 | CN1C(=O)c2ccc(C(=O)NCc3ccccn3)cc2C1=O [TP-C2-51] | 77.63±0.16 | –
55 | COC(=O)c1ccc(C)c(NC(=O)c2cc(-c3ccccn3)nc3ccc(Br)cc23)c1 [TP-C2-33] | – | inhibition at 10 µg/mL [1]: 95.2 ± 1.81%; IC50 [1, 3]: 3.31 ± 0.23 µM; IC50 [1, 4]: 3.32 µM
56 | CCc1ccc(C(=O)NC(=S)Nc2ccc(NC(=O)c3cccc(Cl)c3)cc2)cc1 [TP-C3-43] | – | inhibition at 5 µg/mL ([1]; 5 μg/mL, n ≥ 2): 77.74 ± 0.42%; IC50 [1, 3]: 1.64 µM
57 | CC(C)CNC(=O)c1ccccc1NC(=O)c1ccccc1N(C)S(=O)(=O)c1ccccc1 [TP-C2-29] | 55.92±5.4 | –
